pIC50: −log10 of the molar value.
Molecular target: T1, human oxytocin receptor (Homo sapiens, UniProt P30559)
T1 construct: host or cells: CHO cells, stably transfected (pcDNA3.1 vector)
T1 sequence (P30559 1-389): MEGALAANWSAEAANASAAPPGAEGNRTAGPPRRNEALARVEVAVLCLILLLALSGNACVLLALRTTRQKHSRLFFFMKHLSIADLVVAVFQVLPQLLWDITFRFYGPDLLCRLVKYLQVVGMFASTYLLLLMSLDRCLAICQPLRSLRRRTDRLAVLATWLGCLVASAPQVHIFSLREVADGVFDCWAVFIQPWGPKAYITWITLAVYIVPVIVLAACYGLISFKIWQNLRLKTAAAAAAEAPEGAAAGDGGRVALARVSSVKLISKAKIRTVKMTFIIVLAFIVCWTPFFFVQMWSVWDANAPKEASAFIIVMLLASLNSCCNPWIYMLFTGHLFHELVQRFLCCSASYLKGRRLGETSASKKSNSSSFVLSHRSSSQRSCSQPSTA
Experiment: Oxytocin binding in CHO cell membranes expressing human oxytocin receptors ([3H]oxytocin radioligand binding)
Conditions: for inhibition at 0.1 µM: 100 nM, read-out: OT % inhibition @ 100 nM; for pIC50: value in parentheses, read-out: OT (IC50)
Summary of the method: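 Values are % inhibition at one concentration or nM IC50 from [3H]oxytocin displacement. Membranes from human oxytocin receptor CHO cells, 25–50 μg protein/well, 60 min at room temperature, pH 7.4 Tris buffer with protease inhibitors; bound label by filtration and scintillation counting.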

Structure (SMILES)	inhibition at 0.1 µM	pIC50
Cc1ccccc1-c1ccc(C(=O)N2Cc3ccc(C(=O)N4CCN(c5ccccn5)CC4)n3Cc3ccccc32)cc1 [Example 79, {10-[(2′-Methyl-[1,1′-biphenyl]-4-yl)carbonyl]-10,11-dihydro-5H-pyrrolo[2,1-c][1,4]benzodiazepin-3-yl}[4-(2-pyridinyl)-1-piperazinyl]methanone]	49%	–
COc1ccccc1-c1ccc(C(=O)N2Cc3ccc(C(=O)N4CCN(c5ccccn5)CC4)n3Cc3ccccc32)cc1C [Example 75, {10-[(2′-Methoxy-2-methyl-[1,1′-biphenyl]-4-yl)carbonyl]-10,11-dihydro-5H-pyrrolo[2,1-c][1,4]benzodiazepin-3-yl}[4-(2-pyridinyl)-1-piperazinyl]methanone]	62%	–
COc1cc(C(=O)N2Cc3ccc(C(=O)N(C)Cc4cccnc4)n3Cc3ccccc32)ccc1-c1ccccc1C(F)(F)F [Example 7, 10-{[2-Methoxy-2′-trifluoromethyl-[1,1′-biphenyl]-4-yl]carbonyl}-N-methyl-N-(pyridin-3-ylmethyl)-10,11-dihydro-5H-pyrrolo[2,1-c][1,4]benzodiazepine-3-carboxamide]	–	8.48
Cc1cc(C(=O)N2Cc3ccc(C(=O)N4CCN(c5ccncc5)CC4)n3Cc3ccccc32)ccc1-c1ccccc1C(F)(F)F [Example 1]	–	7.95
COc1ccccc1-c1ccc(C(=O)N2Cc3ccc(C(=O)NCc4ccncc4)n3Cc3ccccc32)cc1OC [Example 97, 10-[(2,2′-Dimethoxy-[1,1′-biphenyl]-4-yl)carbonyl]-N-(4-pyridinylmethyl)-10,11-dihydro-5H-pyrrolo[2,1-c][1,4]benzodiazepine-3-carboxamide]	36%	–
CN(CCc1ccccn1)C(=O)c1ccc2n1Cc1ccccc1N(C(=O)c1ccc(-c3cccc4ccccc34)cc1Cl)C2 [Example 73, 10-[2-Chloro-4-(naphthalen-1-yl)benzoyl]-N-methyl-N-[2-(2-pyridinyl)ethyl]-10,11-dihydro-5H-pyrrolo[2,1-c][1,4]benzodiazepine-3-carboxamide]	32%	–
COc1cc(-c2ccccc2Cl)c(Cl)cc1C(=O)N1Cc2ccc(C(=O)N(C)Cc3cccnc3)n2Cc2ccccc21 [Example 6, 10-[(2′,6-Dichloro-3-methoxy-[1,1′-biphenyl]-4-yl)carbonyl]-N-methyl-N-(pyridin-3-ylmethyl)-10,11-dihydro-5H-pyrrolo[2,1-c][1,4]benzodiazepine-3-carboxamide]	–	8.12
COc1cccc(-c2ccc(C(=O)N3Cc4ccc(C(=O)N(C)Cc5cccnc5)n4Cc4ccccc43)cc2C)c1 [Example 102, 10-[(3′-Methoxy-2-methyl-[1,1′-biphenyl]4-yl)carbonyl]-N-methyl-N-(3-pyridinyImethyl)-10,11-dihydro-5H-pyrrolo[2,1-c][1,4]benzodiazepine-3-carboxamide]	–	8.38
COc1cccc(-c2ccc(C(=O)N3Cc4ccc(C(=O)N5CCN(c6ccccn6)CC5)n4Cc4ccccc43)cc2OC)c1 [Example 85, {10-[(2,3′-Dimethoxy-[1,1′-biphenyl]-4-yl)carbonyl]-10,11-dihydro-5H-pyrrolo[2,1-c][1,4]benzodiazepin-3-yl}[4-(2-pyridinyl)-1-piperazinyl]methanone]	32%	–
COc1cc(-c2ccccc2C)c(Cl)cc1C(=O)N1Cc2ccc(C(=O)NCc3ccncc3)n2Cc2ccccc21 [Example 94, 10-[(6-Chloro-3-methoxy-2′-methyl-[1,1′-biphenyl]-4-yl)carbonyl]-N-(4-pyridinylmethyl)-10,11-dihydro-5H-pyrrolo[2,1-c][1,4]benzodiazepine-3-carboxamide]	37%	–
COc1cc(C(=O)N2Cc3ccc(C(=O)N(C)CCc4ccccn4)n3Cc3ccccc32)ccc1-c1cccc2ccccc12 [Example 71, 10-[3-Methoxy-4-(naphthalen-1-yl)benzoyl]-N-methyl-N-[2-(2-pyridinyl)ethyl]-10,11-dihydro-5H-pyrrolo[2,1-c][1,4]benzodiazepine-3-carboxamide]	81%	–
Cc1ccccc1-c1ccc(C(=O)N2Cc3ccc(C(=O)N(C)CCc4ccccn4)n3Cc3ccccc32)cc1C [Example 66, 10-[(2,2′-Dimethyl-[1,1′-biphenyl]-4-yl)carbonyl]-N-methyl-N-[2-(2-pyridinyl)ethyl]-10,11-dihydro-5H-pyrrolo[2,1-c][1,4]benzodiazepine-3-carboxamide]	92%	–
Cc1cc(C(=O)N2Cc3ccc(C(=O)N4CCN(Cc5ccc[n+]([O-])c5)CC4)n3Cc3ccccc32)ccc1-c1ccccc1C(F)(F)F [Example 2, 10-{[2-Methyl-2′-trifluoromethyl-[1,1′-biphenyl]-4-yl]carbonyl}-3-({4-[(1-oxidopyridin-3-yl)methyl]piperazin-1-yl}carbonyl)-10,11-dihydro-5H-pyrrolo[2,1-c][1,4]benzodiazepine]	–	7.77
COc1cccc(-c2cc(OC)c(C(=O)N3Cc4ccc(C(=O)N5CCN(c6ccccn6)CC5)n4Cc4ccccc43)cc2Cl)c1 [Example 82, {10-[(6-Chloro-3,3′-dimethoxy-[1,1′-biphenyl]-4-yl)carbonyl]-10,11-dihydro-5H-pyrrolo[2,1-c][1,4]benzodiazepin-3-yl}[4-(2-pyridinyl)-1-piperazinyl]methanone]	27%	–

Results, then the compound that gave them:

inhibition at 0.1 µM	pIC50	Structure (SMILES)
24%	–	Cc1cc(C(=O)N2Cc3ccc(C(=O)NCc4ccncc4)n3Cc3ccccc32)ccc1-c1ccccc1C(F)(F)F [Example 100, 10-{[2-Methyl-2′-trifluoromethyl-[1,1′-biphenyl]-4-yl]carbonyl}-N-(4-pyridinylmethyl)-10,11-dihydro-5H-pyrrolo[2,1-c][1,4]benzodiazepine-3-carboxamide]
89%	–	COc1cccc(-c2ccc(C(=O)N3Cc4ccc(C(=O)N(C)CCc5ccccn5)n4Cc4ccccc43)cc2OC)c1 [Example 72, 10-[(2,3′-Dimethoxy-[1,1′-biphenyl]-4-yl)carbonyl]-N-methyl-N-[2-(2-pyridinyl)ethyl]-10,11-dihydro-5H-pyrrolo[2,1-c][1,4]benzodiazepine-3-carboxamide]
-9%	–	Cc1ccccc1-c1ccc(C(=O)N2Cc3ccc(C(=O)N(C)Cc4cccnc4)n3Cc3ccccc32)cc1 [Example 105, N-Methyl-10-[(2′-methyl-[1,1′-biphenyl]-4-yl)carbonyl]-N-(3-pyridinylmethyl)-10,11-dihydro-5H-pyrrolo[2,1-c][1,4]benzodiazepine-3-carboxamide]
94%	–	COc1cc(C(=O)N2Cc3ccc(C(=O)N(C)CCc4ccccn4)n3Cc3ccccc32)ccc1-c1ccccc1C [Example 69, 10-[(2-Methoxy-2′-methyl-[1,1′-biphenyl]-4-yl)carbonyl]-N-methyl-N-[2-(2-pyridinyl)ethyl]-10,11-dihydro-5H-pyrrolo[2,1-c][1,4]benzodiazepine-3-carboxamide]
30%	–	Cc1ccccc1-c1ccc(C(=O)N2Cc3ccc(C(=O)NCc4ccncc4)n3Cc3ccccc32)cc1 [Example 92, 10-[(2′-Methyl-[1,1′-biphenyl]-4-yl)carbonyl]-N-(4-pyridinylmethyl)-10,11-dihydro-5H-pyrrolo[2,1-c][1,4]benzodiazepine-3-carboxamide]
62%	–	Cc1ccccc1-c1ccc(C(=O)N2Cc3ccc(C(=O)N4CCN(c5ccccn5)CC4)n3Cc3ccccc32)cc1C [Example 76, {10-[(2,2′-Dimethyl-[1,1′-biphenyl]-4-yl)carbonyl]-10,11-dihydro-5H-pyrrolo[2,1-c][1,4]benzodiazepin-3-yl}[4-(2-pyridinyl)-1-piperazinyl]methanone]
50%	–	COc1cc(C(=O)N2Cc3ccc(C(=O)N4CCN(c5ccccn5)CC4)n3Cc3ccccc32)ccc1-c1ccccc1C [Example 80, {10-[(2-Methoxy-2′-methyl-[1,1′-biphenyl]-4-yl)carbonyl]-10,11-dihydro-5H-pyrrolo[2,1-c][1,4]benzodiazepin-3-yl}[4-(2-pyridinyl)-1-piperazinyl]methanone]
–	8.41	Cc1cc(C(=O)N2Cc3ccc(C(=O)N(C)Cc4cccnc4)n3Cc3ccccc32)ccc1-c1ccccc1C(F)(F)F [Example 112, N-Methyl-10-{[2-methyl-2′-trifluoromethyl-[1,1′-biphenyl]-4-yl]carbonyl}-N-(3-pyridinylmethyl)-10,11-dihydro-5H-pyrrolo[2,1-c][1,4]benzodiazepine-3-carboxamide]
–	8.65	COc1ccccc1-c1ccc(C(=O)N2Cc3ccc(C(=O)N(C)Cc4cccnc4)n3Cc3ccccc32)cc1C [Example 101, 10-[(2′-Methoxy-2-methyl-[1,1′-biphenyl]-4-yl)carbonyl]-N-methyl-N-(3-pyridinylmethyl)-10,11-dihydro-5H-pyrrolo[2,1-c][1,4]benzodiazepine-3-carboxamide]
–	7.97	COc1cccc(-c2ccc(C(=O)N3Cc4ccc(C(=O)N(C)CCc5ccccn5)n4Cc4ccccc43)cc2C)c1 [Example 62, 10-[(3′-Methoxy-2-methyl-[1,1′-biphenyl]-4-yl)carbonyl]-N-methyl-N-[2-(2-pyridinyl)ethyl]-10,11-dihydro-5H-pyrrolo[2,1-c][1,4]benzodiazepine-3-carboxamide]
